# Legend:
# H3 receptors = molecular target: T1, H3 receptors (Cavia porcellus, UniProt Q9JI35); assay: H3 Receptor Binding Assay; settings: guinea pig brain membranes; 3 nM [3H]R-α-methylhistamine or 3 nM [3H]Nα-methylhistamine; 50 mM Tris pH 7.5, 30° C., 30 min
# T1 construct: The source of the H3 receptors in this experiment was guinea pig brain; from tissue; host or cells: guinea pig brain membranes
# Method: The source of the H3 receptors in this experiment was guinea pig brain. The animals weighed 400-600 g. The brain tissue was homogenized using a Polytron in a solution of 50 mM Tris, pH 7.5. The final concentration of tissue in the homogenization buffer was 10% w/v. The homogenates were centrifuged at 1,000×g for 10 min. in order to remove clumps of tissue and debris. The resulting supernatants were then centrifuged at 50,000×g for 20 min. in order to sediment the membranes, which were next washed three times in homogenization buffer (50,000×g for 20 min. each). The membranes were frozen and stored at -70° C. until needed.
# All compounds to be tested were dissolved in DMSO and then diluted into the binding buffer (50 mM Tris, pH 7.5) such that the final concentration was 2 μg/ml with 0.1% DMSO. Membranes were then added (400 μg of protein) to the reaction tubes. The reaction was started by the addition of 3 nM [^3 H]R-α-methylhistamine (8.8 Ci/mmol) or 3 nM [^3 H]N^α -methylhistamine (80 Ci/mmol) and continued under incubation at 30° C. for 30 min. Bound ligand was separated from unbound ligand by filtration, and the amount of radioactive ligand bound to the membranes was quantitated by liquid scintillation spectrometry. All incubations were performed in duplicate and the standard error was always less than 10%. Compounds that inhibited more than 70% of the specific binding of radioactive ligand to the receptor were serially diluted to determine a Ki (nM).
# histamine H3 receptor = settings: mice, electrically induced convulsions; cited from earlier work
# T1 sequence (Q9JI35 whole entry): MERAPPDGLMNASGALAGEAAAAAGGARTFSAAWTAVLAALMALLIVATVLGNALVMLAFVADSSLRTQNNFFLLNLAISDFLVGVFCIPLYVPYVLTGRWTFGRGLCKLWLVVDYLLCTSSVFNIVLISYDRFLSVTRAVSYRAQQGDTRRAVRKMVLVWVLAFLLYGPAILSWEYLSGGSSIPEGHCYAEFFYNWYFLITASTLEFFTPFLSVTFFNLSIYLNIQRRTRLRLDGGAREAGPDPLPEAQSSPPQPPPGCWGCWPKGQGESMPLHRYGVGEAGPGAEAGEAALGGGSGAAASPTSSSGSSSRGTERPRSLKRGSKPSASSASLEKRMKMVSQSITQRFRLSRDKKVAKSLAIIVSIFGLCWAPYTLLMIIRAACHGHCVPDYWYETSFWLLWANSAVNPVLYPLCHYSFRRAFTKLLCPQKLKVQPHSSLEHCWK
Structure (SMILES),Ki (H3 receptors),further results
O=C(/C=C/c1ccc(Cc2c[nH]cn2)cc1)Nc1ccc(Cl)cc1 [Compound 1],2 nM,
O=C(/C=C/c1ccc(Cc2c[nH]cn2)cc1)NCc1ccc(Cl)cc1 [Compound 2],23 nM,
O=C(/C=C/c1ccc(Cc2c[nH]cn2)cc1)NCCc1ccc(Cl)cc1 [Compound 3],7 nM,
CN(C(=O)/C=C/c1ccc(Cc2c[nH]cn2)cc1)c1ccc(Cl)cc1 [Compound 4],45 nM,
CN(CCc1ccc(Cl)cc1)C(=O)/C=C/c1ccc(Cc2c[nH]cn2)cc1 [Compound 5],35 nM,
O=C(/C=C/c1ccc(Cc2c[nH]cn2)cc1)Nc1ccccc1 [Compound 6],2 nM,
O=C(/C=C/c1ccc(Cc2c[nH]cn2)cc1)NC1CCCCC1 [Compound 7],26 nM,
O=C(/C=C/c1ccc(Cc2c[nH]cn2)cc1)NCCc1cccc(Cl)c1 [Compound 8],11 nM,
CC(Cc1ccc(Cl)cc1)NC(=O)/C=C/c1ccc(Cc2c[nH]cn2)cc1 (stereo not drawn) [Compound 9],10 nM,
CC(CNC(=O)/C=C/c1ccc(Cc2c[nH]cn2)cc1)c1ccccc1 (stereo not drawn) [Compound 10],19 nM,
COc1ccc(CCNC(=O)/C=C/c2ccc(Cc3c[nH]cn3)cc2)cc1 [Compound 11],7 nM,
O=C(/C=C/c1ccc(Cc2c[nH]cn2)cc1)NCCc1c[nH]c2ccccc12 [Compound 12],45 nM,
Cn1cnc(Cc2ccc(/C=C/C(=O)Nc3ccc(Cl)cc3)cc2)c1 [Compound 13],270 nM,
O=C(/C=C/c1ccc(Cc2c[nH]cn2)cc1)NCCc1ccsc1 [Compound 15],12 nM,
O=C(/C=C/c1ccc(Cc2c[nH]cn2)cc1)NCCc1cccc(F)c1 [Compound 16],10 nM,
O=C(/C=C/c1ccc(Cc2c[nH]cn2)cc1)NCCc1cccnc1 [Compound 17],190 nM,
O=C(/C=C/c1ccc(Cc2c[nH]cn2)cc1)NCCc1ccccc1F [Compound 18],10 nM,
O=C(/C=C/c1ccc(Cc2c[nH]cn2)cc1)NCCc1ccccc1Cl [Compound 19],12 nM,
O=C(/C=C/c1ccc(Cc2c[nH]cn2)cc1)NCCCN1CCCC1 [Compound 20],580 nM,

Structure (SMILES),Ki (H3 receptors),further results
O=C(/C=C/c1ccc(Cc2c[nH]cn2)cc1)NCc1ccco1 [Compound 21],110 nM,
Cc1ccc(CCNC(=O)/C=C/c2ccc(Cc3c[nH]cn3)cc2)cc1 [Compound 22],6 nM,
CC(CCc1ccccc1)NC(=O)/C=C/c1ccc(Cc2c[nH]cn2)cc1 (stereo not drawn) [Compound 23],37 nM,
O=C(/C=C/c1ccc(Cc2c[nH]cn2)cc1)NC1CCCc2ccccc21 (stereo not drawn) [Compound 24],220 nM,
O=C(/C=C/c1ccc(Cc2c[nH]cn2)cc1)c1ccc(Cl)cc1 [Compound 25],400 nM,
O=C(/C=C/c1ccc(Cc2c[nH]cn2)cc1)NCc1ccc2ccccc2c1 [Compound 26],200 nM,
CN1CCCC1CCNC(=O)/C=C/c1ccc(Cc2c[nH]cn2)cc1 (stereo not drawn) [Compound 27],1000 nM,
O=C(/C=C/c1ccc(Cc2c[nH]cn2)cc1)NCCc1ccc(Cl)cc1Cl [Compound 28],36 nM,
O=C(/C=C/c1ccc(Cc2c[nH]cn2)cc1)NCCc1ccccc1 [Compound 29],17 nM,
O=C(/C=C/c1ccc(Cc2c[nH]cn2)cc1)Nc1cc(Cl)cc(Cl)c1 [Compound 30],12 nM,
O=C(/C=C/c1ccc(Cc2c[nH]cn2)cc1)Nc1cccc(Cl)c1 [Compound 31],4 nM,
N#Cc1cccc(NC(=O)/C=C/c2ccc(Cc3c[nH]cn3)cc2)c1 [Compound 32],4 nM,
COc1cccc(NC(=O)/C=C/c2ccc(Cc3c[nH]cn3)cc2)c1 [Compound 33],3 nM,
Cc1cc(C)cc(NC(=O)/C=C/c2ccc(Cc3c[nH]cn3)cc2)c1 [Compound 34],2 nM,
O=C(/C=C/c1ccc(Cc2c[nH]cn2)cc1)Nc1cccc(F)c1 [Compound 35],1 nM,
O=C(/C=C/c1ccc(Cc2c[nH]cn2)cc1)Nc1ccc(F)cc1 [Compound 36],5 nM,
O=C(/C=C/c1ccc(Cc2c[nH]cn2)cc1)Nc1cccc(OC(F)(F)F)c1 [Compound 37],8 nM,
O=C(/C=C/c1ccc(Cc2c[nH]cn2)cc1)Nc1ccc(OC(F)(F)F)cc1 [Compound 38],10 nM,
S=C(NC1CCCCC1)N1CCC(c2cnc[nH]2)CC1 [thioperamide],,duration of each phase of convulsion (histamine H3 receptor): decreased; electroconvulsive threshold (histamine H3 receptor): raised
